# Test system: human hepatocytes
# Experiment: Human Hepatocyte Stability Assay
# Format: in vitro ADME
# Conditions: comparison table with known compounds; head prints "(units)", L/hr/kg from the method
# Protocol: The human […] stability of the compounds as predicted hepatocyte clearance in L/hr/kg was assessed. Compounds to be tested were diluted to 200 μM (4 μl of 10 mM DMSO stock into 196 μl ACN:H2O (50:50). Propranolol was used as a positive control, and buffer only without hepatocytes as 0% control. These were further diluted 4 μl with 891 μl KHB buffer (InVitroGRO catalog number Z99074) to provide 2× dosing solution. To each well of 24 well plate, 250 μl of the 2× dosing solution was added to each well with 250 μl of hepatocytes cells (1×10^6 viable cells/ml per well) or KHB for control samples to achieve a final compound concentration of 1 μM during incubation. The final solvent concentration was 0.01% DMSO and 0.25% ACN. The culture plate was placed on a rocker and incubated at 37° C., 5% CO2. Samples were collected at time 0, 1, 3, and 6 hours. The loss of parent compound was determined using LC-MS methods against a standard curve.
row,Structure (SMILES),Hheps CL [mL/min/kg]
1,"COc1ccc(Nc2nc(-c3ccc(N)nc3)cn3ccnc23)cc1OC [6-(6-aminopyridin-3-yl)-N-(3,4-dimethoxyphenyl)imidazo[1,2-a]pyrazin-8-amine, reference compound]",15
2,"Cc1ncc(-c2cn3ccnc3c(Nc3ccc(N4CCOCC4)cc3)n2)cc1N [6-(5-amino-6-methylpyridin-3-yl)-N-(4-morpholinophenyl)imidazo[1,2-a]pyrazin-8-amine, reference compound]",13.3
3,"Nc1cncc(-c2cn3ccnc3c(Nc3ccc(N4CCN(C5COC5)CC4)cc3)n2)n1 [Ex.-2, 6-(6-aminopyrazin-2-yl)-N-(4-(4-(oxetan-3-yl)piperazin-1-yl)phenyl)imidazo[1,2-a]pyrazin-8-amine]",0.917
4,"Nc1cncc(-c2cn3ccnc3c(Nc3ccc(N4CCO[C@@H](CO)C4)cc3)n2)n1 [Ex.-3, (R)-(4-(4-((6-(6-aminopyrazin-2-yl)imidazo[1,2-a]pyrazin-8-yl)amino)phenyl)morpholin-2-yl)methanol]",1.5
5,"Cc1ncc(-c2cn3ccnc3c(Nc3ccc(N4CCN(C5COC5)CC4)cc3)n2)nc1N [Ex.-1, 6-(6-amino-5-methylpyrazin-2-yl)-N-(4-(4-(oxetan-3-yl)piperazin-1-yl)phenyl)imidazo[1,2-a]pyrazin-8-amine]",2
6,"COc1ccc(Nc2nc(-c3cccc(N)c3)cn3ccnc23)cc1OC [6-(3-aminophenyl)-N-(3,4-dimethoxyphenyl)imidazo[1,2-a]pyrazin-8-amine, reference compound]",4
7,"Nc1cncc(-c2cn3ccnc3c(Nc3ccc(N4CCOCC4)cc3)n2)c1 [6-(5-aminopyridin-3-yl)-N-(4-morpholinophenyl)imidazo[1,2-a]pyrazin-8-amine, reference compound]",11.3

# Next, values leading:
row,Hheps CL [mL/min/kg],Structure (SMILES)
1,1.3,"Nc1cncc(-c2cn3ccnc3c(Nc3ccc(N4CCN(CC(CO)CO)CC4)cc3)n2)n1 [Ex.-6, 2-((4-(4-((6-(6-aminopyrazin-2-yl)imidazo[1,2-a]pyrazin-8-yl)amino)phenyl)piperazin-1-yl)methyl)propane-1,3-diol]"
2,1.2,"Nc1cncc(-c2cn3ccnc3c(Nc3ccc(N4CCN(C5COC5)CC4)c(OCCO)c3)n2)n1 [Ex.-5, 2-(5-((6-(6-aminopyrazin-2-yl)imidazo[1,2-a]pyrazin-8-yl)amino)-2-(4-(oxetan-3-yl)piperazin-1-yl)phenoxy)ethanol]"
3,0.83,"Cc1ncc(-c2cn3ccnc3c(Nc3ccc(N4CCN(C5COC5)CC4)c(OCCO)c3)n2)nc1N [Ex.-7, 2-(5-((6-(6-amino-5-methylpyrazin-2-yl)imidazo[1,2-a]pyrazin-8-yl)amino)-2-(4-(oxetan-3-yl)piperazin-1-yl)phenoxy)ethanol]"
4,1.3,"Cc1c(-c2cncc(N)n2)nc(Nc2ccc(N3CCN(C4COC4)CC3)cc2)c2nccn12 [Ex.-4, 6-(6-aminopyrazin-2-yl)-5-methyl-N-(4-(4-(oxetan-3-yl)piperazin-1-yl)phenyl)imidazo[1,2-a]pyrazin-8-amine]"
